# Experimental data taken from patent publication US10316035B2, “Triazolopyridine inhibitors of myeloperoxidase” (BRISTOL-MYERS SQUIBB COMPANY, priority 2015, dated 2019).
# Target: T1, myeloperoxidase (MPO) (Homo sapiens, UniProt P05164)
# T1 sequence (P05164 49-745): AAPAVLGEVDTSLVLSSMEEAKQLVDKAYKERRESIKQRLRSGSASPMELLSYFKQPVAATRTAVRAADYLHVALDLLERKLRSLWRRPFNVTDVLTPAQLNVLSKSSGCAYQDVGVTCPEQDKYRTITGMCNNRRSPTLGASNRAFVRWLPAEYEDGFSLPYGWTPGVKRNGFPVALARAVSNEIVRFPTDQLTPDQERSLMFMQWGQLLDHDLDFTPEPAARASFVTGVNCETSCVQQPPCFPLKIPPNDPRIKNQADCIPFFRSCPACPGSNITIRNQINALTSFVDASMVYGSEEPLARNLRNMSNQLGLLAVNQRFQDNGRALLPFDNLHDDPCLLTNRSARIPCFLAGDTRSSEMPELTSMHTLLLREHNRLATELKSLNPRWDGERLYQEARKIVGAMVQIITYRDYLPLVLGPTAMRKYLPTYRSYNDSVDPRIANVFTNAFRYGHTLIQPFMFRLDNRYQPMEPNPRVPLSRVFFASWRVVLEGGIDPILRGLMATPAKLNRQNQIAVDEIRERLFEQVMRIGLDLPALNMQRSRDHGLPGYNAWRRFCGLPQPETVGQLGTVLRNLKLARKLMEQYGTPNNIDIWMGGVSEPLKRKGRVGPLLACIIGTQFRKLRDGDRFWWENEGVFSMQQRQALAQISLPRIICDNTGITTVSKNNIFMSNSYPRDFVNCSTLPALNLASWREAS
# Experiment: MPO peroxidation assay (Amplex Red assay)
# Format: biochemical
# Details: not given
# In short: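 MPO (200 pM) with 40 nM H2O2 was preincubated 10 min at room temperature with inhibitor in 100 mM KPi pH 7.4. A mix of Amplex Red (200 μM) and H2O2 (10 mM) was then added and resorufin fluorescence read kinetically for 15 min. Slopes over 180–540 s gave % inhibition and IC50 via a four-parameter Hill fit.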
row,IC50 [nM],SMILES
1,101 to 999,"Nc1cc(OCc2ccccc2-n2cccn2)c2nn[nH]c2n1 [Example 255, 7-((2-(1H-Pyrazol-1-yl)benzyl)oxy)-3H-[1,2,3]triazolo[4,5-b]pyridin-5-amine]"

# Same assay, conditions: MPO peroxidation, potency range class; read-out: Amplex Red IC50
row,SMILES,IC50 [nM]
1,"Nc1cc(OCc2ccc(-n3cnc4ccccc43)cc2OC(F)(F)F)c2nn[nH]c2n1 [Example 261, 7-((4-(1H-benzo[d]imidazol-1-yl)-2-(trifluoromethoxy)benzyl)oxy)-3H-[1,2,3] triazolo[4,5-b]pyridin-5-amine]",101 to 999
2,"COC(=O)c1cn(-c2ccc(COc3cc(N)nc4[nH]nnc34)c(OC(F)(F)F)c2)cn1 [Example 264, methyl 1-(4-(((5-amino-3H-[1,2,3]triazolo[4,5-b]pyridin-7-yl)oxy)methyl)-3-(trifluoromethoxy)phenyl)-1H-imidazole-4-carboxylate]",101 to 999
3,"CN(C)Cc1cn(-c2ccc(COc3cc(N)nc4[nH]nnc34)c(OC(F)(F)F)c2)cn1 [Example 266, 7-((4-(4-((dimethylamino)methyl)-1H-imidazol-1-yl)-2-(trifluoromethoxy)benzyl)oxy)-3H-[1,2,3]triazolo[4,5-b]pyridin-5-amine]",101 to 999
4,"Nc1cc(OCc2ccc(-n3cnc(C(F)(F)F)c3)cc2OC(F)(F)F)c2nn[nH]c2n1 [Example 272, 7-((2-(trifluoromethoxy)-4-(4-(trifluoromethyl)-1H-imidazol-1-yl)benzyl)oxy)-3H-[1,2,3]triazolo[4,5-b] pyridin-5-amine]",101 to 999
5,"Cc1cn(-c2ccc(COc3cc(N)nc4[nH]nnc34)c(OC(F)(F)F)c2)cn1 [Example 273, 7-((4-(4-methyl-1H-imidazol-1-yl)-2-(trifluoromethoxy)benzyl)oxy)-3H-[1,2,3] triazolo[4,5-b]pyridin-5-amine]",101 to 999
6,"N#Cc1cc(-n2cnc3ccccc32)ccc1COc1cc(N)nc2[nH]nnc12 [Example 274, 2-(((5-amino-3H-[1,2,3]triazolo[4,5-b]pyridin-7-yl)oxy)methyl)-5-(1H-benzo[d]imidazol-1-yl)benzonitrile]",101 to 999
7,"Cc1cn(-c2ccc(COc3cc(N)nc4[nH]nnc34)c(C#N)c2)cn1 [Example 276, 2-(((5-amino-3H-[1,2,3]triazolo[4,5-b]pyridin-7-yl)oxy)methyl)-5-(4-methyl-1H-imidazol-1-yl)benzonitrile]",101 to 999
8,"Nc1cc(OCc2c(F)cc(-n3ccnc3)cc2F)c2nn[nH]c2n1 [Example 279, 7-((2,6-difluoro-4-(1H-imidazol-1-yl)benzyl)oxy)-3H-[1,2,3]triazolo[4,5-b] pyridin-5-amine]",101 to 999
9,"CS(=O)(=O)c1cc(-n2ccnc2)ccc1COc1cc(N)nc2[nH]nnc12 [Example 280, 7-((4-(1H-imidazol-1-yl)-2-(methylsulfonyl)benzyl)oxy)-3H-[1,2,3]triazolo[4,5-b] pyridin-5-amine]",101 to 999
10,"COc1ncc(-c2ccc(COc3cc(N)nc4[nH]nnc34)c(OC(F)(F)F)c2)cn1 [Example 288, 7-((4-(2-methoxypyrimidin-5-yl)-2-(trifluoromethoxy)benzyl)oxy)-3H-[1,2,3] triazolo[4,5-b]pyridin-5-amine]",101 to 999

# Further lines, results first:
row,IC50 [nM],SMILES
1,1 to 100,"COc1cc(Cl)c(Cl)cc1COc1cc(N)nc2[nH]nnc12 [Example 252, 7-((4,5-Dichloro-2-methoxybenzyl)oxy)-3H-[1,2,3]triazolo[4,5-b]pyridin-5-amine]"
2,101 to 999,"Nc1cc(OCc2ccccc2-n2cncn2)c2nn[nH]c2n1 [Example 253, 7-((2-(1H-1,2,4-Triazol-1-yl)benzyl)oxy)-3H-[1,2,3]triazolo[4,5-b]pyridin-5-amine]"
3,101 to 999,"Nc1cc(OCc2ccc(-n3ccccc3=O)cc2OC(F)(F)F)c2nn[nH]c2n1 [Example 256, 1-(4-(((5-amino-3H-[1,2,3]triazolo[4,5-b]pyridin-7-yl)oxy)methyl)-3-(trifluoromethoxy)phenyl) pyridin-2(1H)-one]"
4,1 to 100,Nc1cc(OCc2ccc(-n3cccn3)cc2OC(F)(F)F)c2nn[nH]c2n1 [Example 257]
5,1 to 100,"Nc1cc(OCc2ccc(-n3ncc4ccccc43)cc2OC(F)(F)F)c2nn[nH]c2n1 [Example 258, 7-((4-(1H-indazol-1-yl)-2-(trifluoromethoxy)benzyl)oxy)-3H-[1,2,3]triazolo[4,5-b]pyridin-5-amine]"
6,1 to 100,"Nc1cc(OCc2ccc(-n3cc4ccccc4n3)cc2OC(F)(F)F)c2nn[nH]c2n1 [Example 259, 7-((4-(2H-indazol-2-yl)-2-(trifluoromethoxy)benzyl)oxy)-3H-[1,2,3]triazolo[4,5-b]pyridin-5-amine]"
7,1 to 100,"Nc1cc(OCc2ccc(-n3cnc(-c4ccccc4)c3)cc2OC(F)(F)F)c2nn[nH]c2n1 [Example 260, 7-((4-(4-phenyl-1H-imidazol-1-yl)-2-(trifluoromethoxy)benzyl)oxy)-3H-[1,2,3] triazolo[4,5-b]pyridin-5-amine]"
8,1 to 100,"Nc1cc(OCc2ccc(-n3cnc(CO)c3)cc2OC(F)(F)F)c2nn[nH]c2n1 [Example 265, (1-(4-(((5-amino-3H-[1,2,3]triazolo[4,5-b]pyridin-7-yl)oxy)methyl)-3-(trifluoromethoxy)phenyl)-1H-imidazol-4-yl)methanol]"
9,1 to 100,"Nc1cc(OCc2ccc(-n3cncn3)cc2OC(F)(F)F)c2nn[nH]c2n1 [Example 267, 7-((4-(1H-1,2,4-triazol-1-yl)-2-(trifluoromethoxy)benzyl)oxy)-3H-[1,2,3]triazolo[4,5-b]pyridin-5-amine]"
10,1 to 100,"Cc1nccn1-c1ccc(COc2cc(N)nc3[nH]nnc23)c(OC(F)(F)F)c1 [Example 268, 7-((4-(2-methyl-1H-imidazol-1-yl)-2-(trifluoromethoxy)benzyl)oxy)-3H-[1,2,3] triazolo[4,5-b]pyridin-5-amine]"
11,1 to 100,"N#Cc1cnn(-c2ccc(COc3cc(N)nc4[nH]nnc34)c(OC(F)(F)F)c2)c1 [Example 270, 1-(4-(((5-amino-3H-[1,2,3]triazolo[4,5-b]pyridin-7-yl)oxy)methyl)-3-(trifluoromethoxy)phenyl)-1H-pyrazole-4-carbonitrile]"
12,1 to 100,"Nc1cc(OCc2c(F)cc(-n3ncc4ccccc43)cc2F)c2nn[nH]c2n1 [Example 281, 7-((2,6-difluoro-4-(1H-indazol-1-yl)benzyl)oxy)-3H-[1,2,3]triazolo[4,5-b]pyridin-5-amine]"
13,1 to 100,"CS(=O)(=O)c1cc(-n2ncc3ccccc32)ccc1COc1cc(N)nc2[nH]nnc12 [Example 282, 7-((4-(1H-indazol-1-yl)-2-(methylsulfonyl)benzyl)oxy)-3H-[1,2,3]triazol[4,5-b] pyridin-5-amine]"
14,1 to 100,"Nc1cc(OCc2ccc(-c3cccnc3)cc2OC(F)(F)F)c2nn[nH]c2n1 [Example 285, 7-((4-(Pyridin-3-yl)-2-(trifluoromethoxy)benzyl)oxy)-3H-[1,2,3]triazolo[4,5-b]pyridin-5-amine]"
15,1 to 100,"CNS(=O)(=O)c1ccc(-c2ccc(COc3cc(N)nc4[nH]nnc34)c(OC(F)(F)F)c2)cc1 [Example 286, 4′-(((5-amino-3H-[1,2,3]triazolo[4,5-b]pyridin-7-yl)oxy)methyl)-N-methyl-3′-(trifluoromethoxy)-[1,1′-biphenyl]-4-sulfonamide]"
16,1 to 100,"CSc1ccc(-c2ccc(COc3cc(N)nc4[nH]nnc34)c(OC(F)(F)F)c2)cn1 [Example 289, 7-((4-(6-(methylthio)pyridin-3-yl)-2-(trifluoromethoxy)benzyl)oxy)-3H-[1,2,3] triazolo[4,5-b]pyridin-5-amine]"
